Assay results reported in patent publication US5543312A, “Pastuerella haemolytica glycoprotease gene and the purified enzyme” (priority 1991, dated 1996).

Tests used:
[1] = biological target: P. haemolytica A1 glycoprotease (Mannheimia haemolytica, UniProt P36175); assay: biochemical; conditions: for Restoration of protease activity by addition of divalent metal ion: after EDTA treatment and dialysis of the enzyme; for Increase of activity by addition of divalent metal ion: native enzyme; for Inhibition of the glycoprotease by anions and acidic amino acids: millimolar concentrations
[2] = system: P. haemolytica glycoprotease; assay: Cleavage of cell surface antigens of surface-125I-iodinated KG1a cells, immunoprecipitation and SDS-PAGE; type: cell-based
Excerpt: In our previous work, we have concentrated on the cleavage of human erythrocyte glycophorin A by the P. haemolytica glycoprotease Udoh et al. 1986. Univ. of Guelph; Abdullah et al. 1988. Proc. Canad. Fed. Biol. Socs.; Abdullah et al. 1990. Biochem. Soc. Trans. This substrate is well-characterized erythrocyte surface O-sialoglycoprotein and is readily available for biochemical analysis. However, it is clear that the physiological targets of this enzyme are not erthrocyte antigens but are probably O-sialoglycoproteins on the surfaces of leukocytes or endothelial cells. SDS-PAGE analysis of immunoprecipitations performed with specific monoclonal antibodies on lysates of surface-^125 I-iodinated KG1a cells, a primitive myeloid/T-lymphois stem cell line Koeffler et al. 1977. Science 200, have shown that the O-sialoglycoprotein cell surface antigens CD34 Civin et al. 1989. Leucocyte Typing IV, Oxford Univ. Press. CD43/leucosialin Killeen et al. 1987. EMBO J.; Pallant et al. 1989. PNAS, CD44/lyaluronic acid receptor Stamenkovic et al. 1989. Cell; Aruffo et al. 1990. Cell and CD45/leucocyte common antigen Thomas et al. 1989. Annu. REv. Immunol.; Pulido et al. 1989. J. Immunol. are all cleaved by the glycoprotease. Although the glycoprotease-sensitive structures contain some N-linked glycans they are all extensively glycosylated with O-linked carbohydrates. […]

[3] = biological target: P. haemolytica A1 protease (Mannheimia haemolytica, UniProt P36175); type: biochemical; conditions: SDS-PAGE and Coomassie blue staining
[4] = pH 7.4, read-out: Activity (% of enzyme activity in the absence of any inhibitor)

P. haemolytica A1 glycoprotease, sequence (P36175 whole entry): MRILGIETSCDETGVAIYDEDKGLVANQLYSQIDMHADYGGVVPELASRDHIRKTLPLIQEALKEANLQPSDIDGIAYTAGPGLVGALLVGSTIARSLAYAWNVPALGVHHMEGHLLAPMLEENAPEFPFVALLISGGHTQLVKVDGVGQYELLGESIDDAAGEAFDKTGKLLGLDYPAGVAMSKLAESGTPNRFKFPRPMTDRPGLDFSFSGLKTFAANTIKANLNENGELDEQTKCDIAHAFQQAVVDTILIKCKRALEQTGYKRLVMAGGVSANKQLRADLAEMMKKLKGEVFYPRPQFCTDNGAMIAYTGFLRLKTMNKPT
P. haemolytica A1 protease, sequence (P36175 whole entry, looked up): as the sequence (P36175 whole entry) above

Question: `c1cnc2c(c1)ccc1cccnc12` [1,10-phenanthroline] was tested. Which “Inhibition of the protease by prolonged treatment” value ([1]; prolonged treatment (24 h)) did it give?
Answer: inhibited

Question: Which inhibition at 11400 µM [1, 4] does the source give for `O=C1O[C@H]([C@@H](O)CO)C(O)=C1O` [Ascorbate] here?
Answer: 60%

Question: With `[Ca+2]` [Ca^2+] as the compound, how does the “Restoration of protease activity by addition of divalent metal ion” value (“Restoration of protease activity” for short) [1] read?
Answer: failed to restore

Question: What about the “Increase of activity by addition of divalent metal ion” value (“Increase of activity” for short) [1] of the same compound?
Answer: failed to increase

Question: For `[Fe+2]` [Fe^2+], which “Restoration of protease activity” value [1] is on record?
Answer: failed to restore

Question: What about the “Increase of activity” value [1] of the same compound?
Answer: failed to increase

Question: Which “Restoration of protease activity” value [1] does the source give for `[Mg+2]` [Mg^2+] here?
Answer: failed to restore

Question: What about the “Increase of activity” value [1] of the same compound?
Answer: failed to increase

Question: For `CCN1C(=O)C=CC1=O` [N-ethylmaleimide], which “Inhibition of glycoprotease by conventional protease inhibitors” value (“Inhibition of glycoprotease” for short) [1] is on record?
Answer: No inhibition

Question: How did the “Inhibition of the glycoprotease (in words)” value ([1]; concentration not given) turn out when `CC(C)C[C@H](NP(=O)(O)O[C@H]1O[C@@H](C)[C@H](O)[C@@H](O)[C@H]1O)C(=O)N[C@@H](Cc1c[nH]c2ccccc12)C(=O)O` [Phosphoramidon, N-(β-L-rhamnopyranosyl-oxyhydroxyphosphinyl)-L-leucyl-L-tryptophan] was run?
Answer: without significant effect

Question: And the inhibition at 900 µM [1, 4]?
Answer: 95%

Question: Which results are given for `[Zn+2]` [Zn^2+]?
Answer: Restoration of protease activity by addition of divalent metal ion [1]: failed to restore; Increase of activity by addition of divalent metal ion [1]: failed to increase

Question: `N[C@@H](CC(=O)O)C(=O)O` [aspartate] was tested. Which “Inhibition of the glycoprotease by anions and acidic amino acids” value [1] did it give?
Answer: Some inhibitions

Question: Which “Inhibition of the glycoprotease by anions and acidic amino acids” value [1] does the source give for `N[C@@H](CCC(=O)O)C(=O)O` [glutamate] here?
Answer: Some inhibitions

Question: With `O=C(O)c1cc[c]([Hg][Cl])cc1` [p-chloromercuribenzoate] as the compound, how does the “Inhibition of glycoprotease” value [1] read?
Answer: No inhibition

Question: How did the “Inhibition of glycoprotease” value [1] turn out when `O=C(O)c1cc[c]([Hg+])cc1.[OH-]` [p-hydroxymercuribenzoate] was run?
Answer: No inhibition

Question: Which “Inhibition of glycoprotease” value [1] does the source give for `O=S(=O)(F)Cc1ccccc1` [phenylmethanesulfonyl-fluoride] here?
Answer: No inhibition

Question: How did the “Inhibition of glycoprotease” value [1] turn out when `Cc1ccc(S(=O)(=O)NC(CCCCN)C(=O)CCl)cc1` (stereo not shown) [tosyl-lysl chloromethylketone] was run?
Answer: No inhibition

Question: Which “Inhibition of glycoprotease” value [1] does the source give for `Cc1ccc(S(=O)(=O)NC(Cc2ccccc2)C(=O)CCl)cc1` (stereo not shown) [tosylphenylalanyl chloromethylketone] here?
Answer: No inhibition

Question: “CD44/lyaluronic acid receptor: O-sialoglycoprotein cell surface antigen, hyaluronate receptor” was tested. Which “Cleavage of cell surface antigen by the glycoprotease” value [2] did it give?
Answer: cleaved

Question: Which “Cleavage of cell surface antigen by the glycoprotease” value [2] does the source give for “CD71/transferrin receptor: N-linked glycoprotein which lacks O-sialo-residues” here?
Answer: resistant

Question: bovine insulin chain A was tested. Which “Hydrolysis of protein by active enzyme fractions” value [3] did it give?
Answer: did not hydrolyze

Question: With cytochrome c as the compound, how does the “Hydrolysis of protein by active enzyme fractions” value [3] read?
Answer: did not hydrolyze

Question: Which “Hydrolysis of protein by active enzyme fractions” value [3] does the source give for insulin chain B here?
Answer: did not hydrolyze
